Test results reported in patent publication US20070093460A1, “Methods of using selective 11beta-HSD inhibitors to treat gluocorticoid associated states” (priority 2005, published 2007).
“Also recorded” adds a separate entry of the source. Read-outs that look alike come from different tables or passages of the source.

Tests used:
11β-HSD1 Dehydrogenase [1] = molecular target: T1, 11β-HSD1 Dehydrogenase (Rattus norvegicus, UniProt P16232); assay: Table 1: inhibition of 11β-HSD1 dehydrogenase; type: biochemical; conditions: Table 1, inhibition in words
T1 sequence (P16232 whole entry): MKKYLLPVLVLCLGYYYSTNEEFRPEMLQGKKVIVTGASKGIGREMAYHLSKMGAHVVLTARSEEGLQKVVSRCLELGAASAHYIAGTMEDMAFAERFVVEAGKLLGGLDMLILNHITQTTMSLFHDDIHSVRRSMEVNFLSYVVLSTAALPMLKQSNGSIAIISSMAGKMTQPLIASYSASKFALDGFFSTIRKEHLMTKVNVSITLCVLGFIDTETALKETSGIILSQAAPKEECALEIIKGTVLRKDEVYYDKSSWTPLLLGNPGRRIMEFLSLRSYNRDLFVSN

11β-HSD2 = molecular target: T2, 11β-HSD2 (Ovis aries, UniProt P50168); assay: 11β-HSD2 enzyme activity in sheep kidney microsomes; type: biochemical
T2 construct: incubating sheep kidney microsomal fraction (6.5 μg protein) with 50 nM corticosterone; from tissue; host or cells: sheep kidney microsomal fraction
T2 sequence (P50168 1-427): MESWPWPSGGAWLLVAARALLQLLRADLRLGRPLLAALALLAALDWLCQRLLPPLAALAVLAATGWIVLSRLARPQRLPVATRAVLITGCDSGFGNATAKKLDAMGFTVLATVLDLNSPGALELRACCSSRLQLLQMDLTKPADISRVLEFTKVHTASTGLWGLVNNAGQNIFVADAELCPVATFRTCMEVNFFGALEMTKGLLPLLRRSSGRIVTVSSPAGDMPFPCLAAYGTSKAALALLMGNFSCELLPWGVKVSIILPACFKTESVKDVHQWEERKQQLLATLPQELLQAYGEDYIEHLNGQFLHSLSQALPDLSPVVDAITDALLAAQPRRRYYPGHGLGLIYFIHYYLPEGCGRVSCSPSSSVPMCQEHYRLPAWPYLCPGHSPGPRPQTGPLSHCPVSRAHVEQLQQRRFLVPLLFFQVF
Description: The enzymatic reaction was termninated by addition of methanol and synthesis of 11-dehydro-corticosterone was quantitated by HPLC as described above.

11β-HSD2 Dehydrogenase = molecular target: T3, 11β-HSD2 Dehydrogenase (Ovis aries, UniProt P50168); assay: Table 1: inhibition of 11β-HSD2 dehydrogenase; type: biochemical; conditions: Table 1, inhibition in words
T3 sequence (P50168 1-427): T2 sequence (P50168 1-427)

11β-HSD1 Reductase [2] = molecular target: T4, 11β-HSD1 Reductase (Rattus norvegicus, UniProt P16232); assay: 11β-HSD1 reductase assay in rat Leydig cell homogenates; conditions: for inhibitors of 11β-HSD1 reductase (summary in words): summary of the screening;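 for all read-outs here: rat Leydig cell homogenate incubated 20 min at 37 °C, pH 7.4, with tritiated 11-dehydro-corticosterone and 3 mM NADPH, product measured by HPLC, inhibition from triplicate dose–response curves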
T4 sequence (P16232 whole entry): as the sequence (P16232 whole entry) above
Description: Each enzyme reaction (described below) was stopped by adding 750 μL MeOH. After centrifugation, an aliquot of supernatant was analyzed by HPLC using a DuPont Zorbax C8 column.
11β-HSD1 dehydrogenase was assayed by incubating homogenates (13,000 cells equivalent) with 600 nM [^3H]-B (0.5 μCi) in the presence of 3 mM NADP, 50 mM Tris-HCl; pH 8.4 at 37° C. for 10 minutes in a total volume of 250 μL. 11β-HSD1 reductase was assayed by incubating homogenates (52,000 cells equivalent) with 600 nM [^3H]-11-dehydro-corticosterone in presence of 3 mM NADPH, 50 mM Tris-HCl; pH 7.4 at 37° C. for 20 minutes in a total volume of 250 μL.
Each concentration was tested in triplicate and the dose response curve, showing percentage inhibition versus log concentration of steroid was plotted. The data fitted a log-linear straight line.

11β-HSD1 Dehydrogenase [3] = molecular target: T1, 11β-HSD1 Dehydrogenase; assay: 11β-HSD1 dehydrogenase assay in rat Leydig cell homogenates; type: biochemical; set-up: Freshly prepared rat Leydig cell homogenates were chosen since they provide a rich and reliable source of both 11β-HSD1 dehydrogenase and reductase; from tissue; host or cells: rat testicular Leydig cells, homogenate; conditions: for inhibitors of 11β-HSD1 dehydrogenase (summary in words): summary of the screening;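 for all read-outs here: tritiated corticosterone conversion by 11β-HSD1 dehydrogenase in Leydig homogenates with 3 mM NADP at pH 8.4, 37 °C for 10 min, products resolved by HPLC, inhibition relative to uninhibited enzyme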
11β-HSD1 Reductase [4] = molecular target: T4, 11β-HSD1 Reductase; assay: Table 1: inhibition of 11β-HSD1 reductase; type: biochemical; conditions: Table 1, inhibition in words
[5] = sheep kidney microsomes, corticosterone substrate, progesterone and androgen derivatives
[6] = rat Leydig cell homogenates, 600 nM corticosterone, progesterone and androgen derivatives
[7] = rat Leydig cell homogenates, 600 nM corticosterone, NADP, corticosteroid series, read-out: Leydig Cell 11β-HSD1 Dehydrogenase [S]= 600 nM
[8] = 11β-HSD2, sheep kidney microsomes, 50 nM corticosterone, NAD+, aldosterone, cortisol, corticosterone series, read-out: Dehydrogenase [S] = 50 nM
[9] = rat Leydig cell homogenates, 600 nM 11-dehydro-corticosterone, NADPH, corticosteroid series
[10] = rat Leydig cell homogenates, 600 nM corticosterone, NADP, corticosteroid series
[11] = 11β-HSD2, sheep kidney microsomes, 50 nM corticosterone, NAD+, aldosterone, cortisol, corticosterone series
[12] = read-out: Leydig Cell 11β-HSD1 Reductase [S]= 600 nM, rat Leydig cell homogenates, 600 nM 11-dehydro-corticosterone, NADPH, corticosteroid series
[13] = read-out: Leydig Cell 11β-HSD1 Reductase [S] = 600 nM, rat Leydig cell homogenates, 600 nM 11-dehydro-corticosterone, progesterone and androgen derivatives
[14] = rat Leydig cell homogenates, 600 nM corticosterone, progesterone and androgen derivatives, read-out: Leydig Cell 11β-HSDl Dehydrogenase [S] = 600 nM

SMILES | 11β-HSD1 Dehydrogenase (11β-HSD1 Dehydrogenase [1]) | IC50 (11β-HSD1 Reductase [2]) | 11β-HSD1 Reductase (11β-HSD1 Reductase [4]) | IC50 (11β-HSD1 Dehydrogenase [3]; [7]) | IC50 (11β-HSD2; [8]) | Leydig Cell 11β-HSD1 Reductase [S]= 600 nM (11β-HSD1 Reductase [2]; [9]) | Leydig Cell 11β-HSD1 Dehydrogenase [S]= 600 nM (11β-HSD1 Dehydrogenase [3]; [10]) | other results
C[C@]12CCC(=O)C=C1CC[C@@H]1[C@H]2C(=O)C[C@]2(C)C(=O)CC[C@H]12 (stereo in doubt) [11 -Keto-Androstenedione, 4-Androsten-11,3,17-trione] | No Inhibition | 21 µM | Selective Inhibitor | – | – | – | – | IC50 (11β-HSD2): > 10 µM; Sheep kidney 11β-HSD2 [S] = 50 nM (11β-HSD2; [5]): inactive; 11β-HSD2 Dehydrogenase (11β-HSD2 Dehydrogenase): No Inhibition; IC50 (11β-HSD1 Dehydrogenase [3]): > 100 µM; Leydig Cell 11β-HSDl Dehydrogenase [S] = 600 nM (11β-HSD1 Dehydrogenase [3]; [6]): inactive
C[C@]12CC[C@@H](O)C[C@@H]1CC[C@@H]1[C@@H]2C(=O)C[C@@]2(C)[C@H]1CC[C@]2(O)C(=O)CO [3α,5α-TH- Cortisone, 5α-Pregnan-3α,17α,21-triol-11,20-dione] | – | 4.3 µM | – | > 100 µM | – | – | – | –
C[C@]12CC[C@@H](O)C[C@@H]1CC[C@@H]1[C@@H]2[C@@H](O)C[C@@]2(C)[C@H]1CC[C@]2(O)C(=O)CO [3α,5α-TH-Cortisol, 5α-Pregnan-3α,11β,17α,21-tetrol-20-one] | – | > 100 µM | – | 14 µM | 8 µM | inactive | inactive | –
C[C@]12CC[C@@H](O)C[C@H]1CC[C@@H]1[C@H]2C(=O)C[C@]2(C)[C@@H](O)CC[C@@H]12 [3α,5α-reduced-11-keto-testosterone] | No Inhibition | – | Selective Inhibitor | – | – | – | – | –
C[C@]12CC[C@@H](O)C[C@H]1CC[C@H]1[C@@H]3CC[C@H](C(=O)CO)[C@@]3(C)CC(=O)[C@@H]12 [3α,5β-TH- 11 -dehydro-corticosterone, 5β-Pregnan-3α,21-diol-11,20-dione] | – | – | – | > 100 µM | > 10 µM | inactive | inactive | Dehydrogenase [S] = 50 nM (11β-HSD2; [11]): inactive; IC50 (11β-HSD1 Reductase [2]; [12]): > 100 µM
C[C@]12CC[C@@H](O)C[C@H]1CC[C@@H]1[C@@H]2[C@@H](O)C[C@]2(C=O)[C@@H](C(=O)CO)CC[C@@H]12 [3α,5β-TH-Aldosterone, 5β-Pregnan-3α,11β,21-triol-20-one-18-al] | – | – | – | > 100 µM | > 10 µM | inactive | inactive | Dehydrogenase [S] = 50 nM (11β-HSD2; [11]): inactive; IC50 (11β-HSD1 Reductase [2]; [12]): > 100 µM
C[C@]12CC[C@@H](O)C[C@H]1CC[C@@H]1[C@@H]2[C@@H](O)C[C@]2(C)[C@@H](C(=O)CO)CC[C@@H]12 [3α,5β-TH-Corticosterone, 5β-Pregnan-3α,11β,21-triol-20-one] | – | > 100 µM | – | > 100 µM | > 10 µM | inactive | inactive | Dehydrogenase [S] = 50 nM (11β-HSD2; [11]): inactive
C[C@]12CC[C@@H](O)C[C@H]1CC[C@@H]1[C@@H]2[C@@H](O)C[C@@]2(C)[C@H]1CC[C@]2(O)C(=O)CO [3α,5β-TH-Cortisol, 5β-Pregnan-3α,11β,17α,21-tetrol-20-one] | – | > 100 µM | – | > 100 µM | > 10 µM | inactive | inactive | Dehydrogenase [S] = 50 nM (11β-HSD2; [11]): inactive
C[C@]12CC[C@@H](O)C[C@H]1CC[C@@H]1[C@@H]2C(=O)C[C@@]2(C)[C@H]1CC[C@]2(O)C(=O)CO [3α,5β-TH-Cortisone, 5β-Pregnan-3α, 17α,21-triol-11,20-dione] | – | 60 µM | – | > 100 µM | – | – | – | –
C[C@]12CC[C@@H](O)C[C@H]1CC[C@@H]1[C@H]2[C@@H](O)C[C@]2(C)C(=O)CC[C@H]12 [3α,5β-reduced- 11β-OH- androstenedione] | Moderate Inhibitor | – | No Inhibition | – | – | – | – | 11β-HSD2 Dehydrogenase (11β-HSD2 Dehydrogenase): Potent Inhibitor (Non-Selective)
C[C@]12CC[C@H](O)C[C@@H]1CC[C@H]1[C@@H]3CC[C@H](O)[C@@]3(C)CC(=O)[C@@H]12 [11 -Keto-3β,5α-TH-Testosterone] | – | – | – | – | – | – | – | IC50 (11β-HSD2; sheep kidney microsomes, corticosterone substrate, progesterone and androgen derivatives, read-out: Sheep kidney 11β-HSD2 [S] = 50 nM): 8 µM; IC50 (11β-HSD1 Reductase [2]; [13]): 0.65 µM; inhibitors of 11β-HSD1 reductase (summary in words) (11β-HSD1 Reductase [2]; listed as 11-Keto-3β,5α-TH-Testosterone): potent inhibitors; inhibitors of 11β-HSD1 reductase (summary in words) (11β-HSD1 Reductase [2]; listed as 11-keto-3β,5α-TH-testosterone): high potency; Leydig Cell 11β-HSDl Dehydrogenase [S] = 600 nM (11β-HSD1 Dehydrogenase [3]; [6]): weak inhibitor; IC50 (11β-HSD1 Dehydrogenase [3]; [14]): 50 µM
C[C@]12CC[C@@H](O)C[C@H]1CC[C@@H]1[C@H]2C(=O)C[C@]2(C)C(=O)CC[C@@H]12 [11 -Keto-androsterone, 5α-Androstan-3a-ol-11,1 7-dione] | No Inhibition | > 100 µM | Selective Inhibitor | – | – | – | – | IC50 (11β-HSD2): > 10 µM; IC50 (11β-HSD1 Dehydrogenase [3]): > 100 µM
C[C@]12CC[C@@H](O)C[C@H]1CC[C@@H]1[C@@H]2C(=O)C[C@]2(C)C(=O)CC[C@@H]12 [11 -Keto-etiocholanolone] | – | – | – | – | – | – | – | IC50 (11β-HSD1 Reductase [2]; [13]): > 100 µM; IC50 (11β-HSD1 Dehydrogenase [3]; [14]): > 100 µM
CC(=O)[C@H]1CC[C@@H]2[C@@H]3CCC4=CC(=O)CC[C@]4(C)[C@@H]3[C@@H](O)C[C@]12C [11β-OH-Progesterone, 4-Pregnen-11β-ol-3,20-dione] | Potent Inhibitor (Non-Selective) | > 100 µM | No Inhibition | – | – | – | – | Leydig Cell 11β-HSD1 Reductase [S]= 600 nM (11β-HSD1 Reductase [2]; rat Leydig cell homogenates, 600 nM 11-dehydro-corticosterone, progesterone and androgen derivatives): inactive; IC50 (11β-HSD1 Dehydrogenase [3]; [14]): 5.6 µM; inhibitors of 11β-HSD1 dehydrogenase (summary in words) (11β-HSD1 Dehydrogenase [3]): potent inhibitors; also recorded: high potency; inhibitors of 11β-HSD1 dehydrogenase (summary in words) (11β-HSD1 Dehydrogenase [3]; listed as 11β-hydroxy-progesterone): potently inhibit
C[C@]12CC[C@@H](O)C[C@@H]1CC[C@@H]1[C@@H]2[C@@H](O)C[C@]2(C)[C@@H](O)CC[C@@H]12 [11β-OH-androstanediol, 5α-Androstan-3α,11β,17β-triol] | – | 11.5 µM | – | – | – | – | – | IC50 (11β-HSD2): 4.5 µM; IC50 (11β-HSD1 Dehydrogenase [3]): 5 µM; inhibitors of 11β-HSD1 dehydrogenase (summary in words) (11β-HSD1 Dehydrogenase [3]): potent inhibitors; also recorded: high potency
C[C@]12CC[C@@H](O)C[C@@H]1CC[C@@H]1[C@@H]2[C@@H](O)C[C@]2(C)C(=O)CC[C@@H]12 [11β-OH-androsterone, 5α-Androstan-3ct,11β-diol-17-one] | – | > 100 µM | – | – | – | – | – | IC50 (11β-HSD2): > 10 µM; IC50 (11β-HSD1 Dehydrogenase [3]): > 100 µM
C[C@]12CC[C@@H](O)C[C@H]1CC[C@@H]1[C@@H]2[C@@H](O)C[C@]2(C)C(=O)CC[C@@H]12 [11β-OH-etiocholanolone] | – | – | – | – | – | – | – | IC50 (11β-HSD1 Reductase [2]; [13]): > 100 µM; IC50 (11β-HSD1 Dehydrogenase [3]; [14]): > 100 µM
CC(=O)[C@H]1CC[C@H]2[C@@H]3CC[C@@H]4C[C@H](O)CC[C@]4(C)[C@H]3[C@@H](O)C[C@]12C [11β-OH-pregnanolone, 5β-Pregnan-3α,11β-diol-20-one] | – | 80 µM | – | – | – | – | – | IC50 (11β-HSD2): > 10 µM; Sheep kidney 11β-HSD2 [S] = 50 nM (11β-HSD2; [5]): inactive; IC50 (11β-HSD1 Dehydrogenase [3]): 30 µM
C[C@]12CCC(=O)C=C1CC[C@@H]1[C@@H]2[C@@H](O)C[C@]2(C=O)[C@@H](C(=O)CO)CC[C@@H]12 [Aldosterone, 4-Pregnen-11,21-diol-3,20-dione-18-al, reference compound] | – | > 100 µM | – | > 100 µM | > 10 µM | inactive | inactive | Dehydrogenase [S] = 50 nM (11β-HSD2; [11]): inactive
C[C@H](CCC(=O)O)[C@H]1CC[C@H]2[C@@H]3[C@H](O)C[C@@H]4C[C@H](O)CC[C@]4(C)[C@H]3CC[C@]12C [chenodeoxycholic acid] | Selective inhibitor | – | No Inhibition | – | – | – | – | 11β-HSD2 Dehydrogenase (11β-HSD2 Dehydrogenase): No Inhibition
